From patent US4279905A, “1-Benzoxepin-5 (2H)-one derivatives and pharmaceutical compositions” (Kali-Chemie Pharma GmbH, priority 1979, dated 1981)

Assays:
[1] = Determination of acute toxicity (seven-day, single intraperitoneal dose); details: in vivo, ip, fasting white NMRI mouse, single dose i.p., probit analysis, read-out: LP50 i.p.
Protocol: The acute seven-day toxicity is determined by intraperitoneal administration of a single dose of the respective compound to a fasting white NMRI mouse. The LD50 -values are calculated via electronic data processing by a probit analysis as described in the book "Grundbegriffe der Biometrie" (Basic Biometrical Definitions) by L. Cavalli-Sforza, page 153 et seq., published by Gustav Fischer Verlag, Stuttgart, 1964.

[2] = system: gastric peristalsis; assay: Testing of the gastric peristalsis (gastric pressure, barium chloride-stimulated stomach of narcotized rats); type: in vivo; details: 20 mg/kg intraperitoneally, BaCl2 50 mg/kg/h i.v. infusion, compared with control value before compound; for Change in gastric pressure-wave amplitude: the values are: decrease in gastric amplitude; for change in vivo at 20 mg/kg: Rattus norvegicus, ip, read-out: Frequency Decrease in %
Text: To determine the functioning of the gastric peristalsis, rats weighing about 200 g are narcotized by means of ketamine hydrochloride and xylazine. A catheter is introduced into the Vena jugularis of the narcotized rats and a tracheal catheter into the trachea. A stomach probe is inserted into their stomach and tied thereto. The probe is connected via a three-way cock with a Statham pressure imparting device (P 23 DB). The stomach is sealed off by a ligature at the pylorus and at the cardia. The stomach is filled with 3 ml of a 0.9% aqueous sodium chloride solution. The pressure waves produced by the stomach are continuously registered by a suitable recording device such by a Watanabe Multicorder (MC 641).
In conducting the test, a control value is obtained by inducing a stimulation of the stomach through a lengthy intravenous infusion of 50 mg/kg/h of bariumchloride and the amplitude and frequency of resultant pressure waves are measured. Subsequently, in order to determine the pharmacological effects, the compounds to be tested are dissolved in physiological sodium chloride solution or are suspended in Tylose MH 50 solution. The solutions or suspensions are then administered intraperitoneally to the rats in a dose of 20 mg/kg. The amplitudes and frequencies of the pressure wave-like movements of the stomach as they occur with the test solution and after administration of the compound to be tested, are compared.

SMILES	LD50 at 168 h [1] [mg/kg]	Change in gastric pressure-wave amplitude [2] [%]	change in vivo at 20 mg/kg [2] [%]
CNC1=CC(=O)c2ccccc2OC1 [A, 3-methylamino-1-benzoxepin-5(2H)-one]	664	56	-18
CNC1=CC(=O)c2ccc(Cl)cc2OC1 [B, 3-methylamino-8-chloro-1-benzoxepin-5(2H)-one]	450	58	-16
CC(C)NC1=CC(=O)c2ccccc2OC1 [C, 3-isopropylamino-1-benzoxepin-5(2H)-one]	544	32	-2
O=C1C=C(NCCc2ccccc2)COc2ccccc21 [Compound F, 3-phenethylamino-1-benzoxepin-5(2H)-one]		29	-7
NC1=CC(=O)c2ccccc2OC1 [D, 3-amino-1-benzoxepin-5(2H)-one]	544	45	-12
CCCCNC1=CC(=O)c2ccccc2OC1 [E, 3-(n-butylamino)-1-benzoxepin-5(2H)-one]	442	26	36
O=C1C=C(N2CCN(Cc3ccccc3)CC2)COc2ccccc21 [G, 3-(N-benzylpiperazino)-1-benzoxepin-5(2H)-one]	634	31	10
O=C1C=C(N2CCOCC2)COc2ccccc21 [H, 3-morpholino-1-benzoxepin-5(2H)-one]	650	12	17
COCCNC1=CC(=O)c2ccccc2OC1 [I, 3-(β-methoxyethylamino)-1-benzoxepin-5(2H)-one]		46	11
CNC1=CC(=O)c2ccc(C)cc2OC1 [K, 3-methylamino-8-methyl-1-benzoxepin-5(2H)-one]		55	4
CNC1=CC(=O)c2cc(C)ccc2OC1 [L, 3-methylamino-7-methyl-1-benzoxepin-5(2H)-one]		75	15
CNC1=CC(=O)c2ccc(C(C)(C)C)cc2OC1 [M, 3-methylamino-8-tert.-butyl-1-benzoxepin-5(2H)-one]		72	10
CNC1=CC(=O)c2cc(Cl)ccc2OC1 [N, 3-methylamino-7-chloro-1-benzoxepin-5(2H)-one]		46	-1
CNC1=CC(=O)c2cc(F)ccc2OC1 [O, 3-methylamino-7-fluoro-1-benzoxepin-5(2H)-one]		37	1
